Columns and labels:
Experiment in all cases: Post-emergent Test III, herbicidal activity in wheat and barley
Assay type in all cases: in vivo
[1] = system: HORSS: barley, including spring and winter (Hordeum vulgare); conditions: 21 days after application; for pest or weed control at 35 g/ha / pest or weed control at 70 g/ha: Hordeum vulgare, post-emergence, 504 h, read-out: Visual Gorowth Reduction (%) 21 days After Application HORSS; for pest or weed control at 35 g/ha: 35 g ai/ha; for pest or weed control at 70 g/ha: 70 g ai/ha; for GR20 HORSS: probit analysis, dose for 20 percent growth reduction (crop)
In short: (§1)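 GR20, GR50, GR80 and GR90 come from probit analysis of visual injury scores (0 = none, 100 = complete kill) taken 21 d after treatment. Foliar application was by track sprayer delivering 187 L/ha at five rates, from high down to 1/16×, onto greenhouse plants at the 2–3 leaf stage, with solvent-blank controls.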

[2] = system: KCHSC: kochia (Kochia scoparia); conditions: 21 days after application; for pest or weed control at 35 g/ha / pest or weed control at 70 g/ha: Bassia scoparia, post-emergence, 504 h, read-out: Visual Gorowth Reduction (%) 21 days After Application KCHSC; for pest or weed control at 35 g/ha: 35 g ai/ha; for pest or weed control at 70 g/ha: 70 g ai/ha; for GR50 KCHSC / GR80 KCHSC: probit analysis; for GR50 KCHSC: dose for 50 percent growth reduction; for GR80 KCHSC: dose for 80 percent growth reduction
In short: as §1

[3] = system: MATSS: scented mayweed (Matricaria chamomilla), pineappleweed (Matricaria matricarioides); conditions: 21 days after application; for pest or weed control at 35 g/ha / pest or weed control at 70 g/ha: Matricaria chamomilla, post-emergence, 504 h, read-out: Visual Gorowth Reduction (%) 21 days After Application MATSS; for pest or weed control at 35 g/ha: 35 g ai/ha; for pest or weed control at 70 g/ha: 70 g ai/ha; for GR50 MATSS / GR80 MATSS: probit analysis; for GR50 MATSS: dose for 50 percent growth reduction; for GR80 MATSS: dose for 80 percent growth reduction
In short: as §1

[4] = system: SASKR: Russian thistle (Salsola iberica); conditions: 21 days after application; for pest or weed control at 35 g/ha / pest or weed control at 70 g/ha: Salsola tragus, post-emergence, 504 h, read-out: Visual Gorowth Reduction (%) 21 days After Application SASKR; for pest or weed control at 35 g/ha: 35 g ai/ha; for pest or weed control at 70 g/ha: 70 g ai/ha; for GR50 SASKR / GR80 SASKR: probit analysis; for GR50 SASKR: dose for 50 percent growth reduction; for GR80 SASKR: dose for 80 percent growth reduction
In short: as §1

[5] = system: TRZSS: wheat, including spring and winter (Triticum aestivum); conditions: 21 days after application; for pest or weed control at 35 g/ha / pest or weed control at 70 g/ha: Triticum aestivum, post-emergence, 504 h, read-out: Visual Gorowth Reduction (%) 21 days After Application TRZSS; for pest or weed control at 35 g/ha: 35 g ai/ha; for pest or weed control at 70 g/ha: 70 g ai/ha; for GR20 TRZSS: probit analysis, dose for 20 percent growth reduction (crop)
In short: as §1

[6] = system: VERPE: bird's-eye speedwell (veronica persica); conditions: 21 days after application; for pest or weed control at 35 g/ha / pest or weed control at 70 g/ha: Veronica persica, post-emergence, 504 h, read-out: Visual Gorowth Reduction (%) 21 days After Application VERPE; for pest or weed control at 35 g/ha: 35 g ai/ha; for pest or weed control at 70 g/ha: 70 g ai/ha; for GR50 VERPE / GR80 VERPE: probit analysis; for GR50 VERPE: dose for 50 percent growth reduction; for GR80 VERPE: dose for 80 percent growth reduction
In short: as §1

[7] = system: VIOSS: wild pansy (Viola tricolor), field violet (Viola arvensis); conditions: 21 days after application; for pest or weed control at 35 g/ha / pest or weed control at 70 g/ha: Viola tricolor, post-emergence, 504 h, read-out: Visual Gorowth Reduction (%) 21 days After Application VIOSS; for pest or weed control at 35 g/ha: 35 g ai/ha; for pest or weed control at 70 g/ha: 70 g ai/ha; for GR50 VIOSS / GR80 VIOSS: probit analysis; for GR50 VIOSS: dose for 50 percent growth reduction; for GR80 VIOSS: dose for 80 percent growth reduction
In short: as §1

| SMILES | pest or weed control at 35 g/ha [1] [%] | pest or weed control at 70 g/ha [1] [%] | GR20 HORSS [1] [g ai/ha] | pest or weed control at 35 g/ha [2] [%] | pest or weed control at 70 g/ha [2] [%] | GR50 KCHSC [2] [g ai/ha] | GR80 KCHSC [2] [g ai/ha] | pest or weed control at 35 g/ha [3] [%] | pest or weed control at 70 g/ha [3] [%] | GR50 MATSS [3] [g ai/ha] | GR80 MATSS [3] [g ai/ha] | pest or weed control at 35 g/ha [4] [%] | pest or weed control at 70 g/ha [4] [%] | GR50 SASKR [4] [g ai/ha] | GR80 SASKR [4] [g ai/ha] | pest or weed control at 35 g/ha [5] [%] | pest or weed control at 70 g/ha [5] [%] | GR20 TRZSS [5] [g ai/ha] | pest or weed control at 35 g/ha [6] [%] | pest or weed control at 70 g/ha [6] [%] | further results |
| --- | --- | --- | --- | --- | --- | --- | --- | --- | --- | --- | --- | --- | --- | --- | --- | --- | --- | --- | --- | --- | --- |
| COc1c(N)nc(-c2ccc(Br)c(F)c2F)nc1C(=O)O [Compound 8] | 60 to 74 | 75 to 84 | 1 | 95 to 100 | 95 to 100 | 3 | 6 | 60 to 74 | 75 to 84 | 26 | 73 | 85 to 94 | 85 to 94 | 1 | 16 | 75 to 84 | 85 to 94 | 1 | 95 to 100 | 95 to 100 | GR50 VERPE [6]: 1 g ai/ha; GR80 VERPE [6]: 1 g ai/ha; pest or weed control at 35 g/ha [7]: 85 to 94%; pest or weed control at 70 g/ha [7]: 85 to 94%; GR50 VIOSS [7]: 13 g ai/ha; GR80 VIOSS [7]: 28 g ai/ha |
| Nc1c(F)c(-c2ccc(Br)c(F)c2)nc(C(=O)O)c1Cl [Compound 21] | 85 to 94 | 95 to 100 | 1 | 95 to 100 | 95 to 100 | 1 | 1 | 85 to 94 | 85 to 94 | 5 | 31 | 75 to 84 | 85 to 94 | 1 | 25 | 75 to 84 | 85 to 94 | 1 | 30 to 44 | 0 to 29 | GR50 VERPE [6]: 130 g ai/ha; GR80 VERPE [6]: >140 g ai/ha; pest or weed control at 35 g/ha [7]: 95 to 100%; pest or weed control at 70 g/ha [7]: 95 to 100%; GR50 VIOSS [7]: 4 g ai/ha; GR80 VIOSS [7]: 6 g ai/ha |
